{
  "source": "patent US9205073B2",
  "about": "“Method for treating virus infection using derivative of aniline” (CHINA MEDICAL UNIVERSITY, priority 2014, dated 2015)",
  "key": {"JEV T1P1": {"test_system": "JEV T1P1", "assay": "Apoptosis test (Annexin V/PI flow cytometry), JEV T1P1-infected BHK-21 cells", "assay_type": "cell-based, Japanese encephalitis virus", "settings": "JEV T1P1 infection 36 hours; infected without compound 59.05%", "method": "BHK-21 cells and/or TE671cells were separately cultured in a 24-well culture plate, with an initial density of 3×10^4 per well, and with 1 ml of 2% FBS-containing MEM medium per well. The cells were incubated in an incubator (37° C., 5% CO2) overnight, and the medium was removed until the cells adhered to the plate. Then, fresh 2% FBS-containing MEM medium was simultaneously added into each well of the culture plate. The cells were infected with a JEV T1P1 virus strain, wherein the amount of JEV T1P1 used to infect BHK-21 cells was a multiplicity of infection (M.O.I.)=0.1, and the amount of JEV T1P1 used to infect TE671 cells was M.O.I.=0.05. Different concentrations of compound 1 (final concentrations were 0, 2.5, 25 and 125 μM, respectively) were added into different wells. The culture plate was placed into an incubator (37° C., 5% CO2) and maintained therein.\nBHK-21 cells and TE 671 cells were washed with PBS after being infected with the JEV T1P1 virus strain for 36 hours in the above experiment (1). Then, PBS was removed. Trypsin-EDTA (150 μl) was added into each well. The cells were incubated in an incubator at 37° C. for 3 minutes. Then, 1 ml MEM medium was added into each well to neutralize EDTA. […] The cells were maintained in the dark for 5 to 10 minutes, and then analyzed by flow cytomerty."}, "DEN2 [1]": {"test_system": "DEN2", "assay": "Dengue virus infection-induced cytopathic effect in BHK-21 cells", "assay_type": "cell-based, dengue virus type 2", "settings": "infected 72 hours, M.O.I.=0.1, compound 25 μM", "method": "BHK-21 cells were cultured in a 24-well culture plate at an initial density of 3×10^4 per well with 1 ml of 2% FBS-containing MEM medium per well. The cells were incubated in an incubator (37° C., 5% CO2) overnight, and the medium was removed until the cells adhered to the plate. Then, 1 ml of fresh 2% FBS-containing MEM medium was simultaneously added into each well of the culture plate; the cells were infected with the DEN2 virus strain (M.O.I.=0.1); different concentrations of compound 1 (the final concentrations were 0, 2.5 and 25 μM, respectively) were added into different wells. BHK-21 cells were incubated in an incubator (37° C., 5% CO2) for 72 hours, and then their morphology was observed by photography."}, "DEN2 [2]": {"test_system": "DEN2", "assay": "Dengue virus replication, DEN2 NS1 antigen-capture ELISA in Huh7 cells", "assay_type": "cell-based, dengue virus type 2", "settings": "M.O.I.=5, 48 hours, compound 10 μM", "method": "Huh7 cells were cultured in a 24-well culture plate with an initial density of 3×10^4 per well, and with 1 ml of 2% FBS-containing MEM medium per well. The cells were incubated in an incubator (37° C., 5% CO2) overnight. The medium was removed until the cells adhered to the plate. Then, 1 ml of fresh 2% FBS-containing MEM medium was simultaneously added into each well of the culture plate. The cells were infected with DEN2 virus strain (M.O.I.=5). Different concentrations of compound 1 (the final concentrations were 0, 10, 50, 100 and 150 μM, respectively) were added into different wells. The culture plate was placed into an incubator (37° C., 5% CO2) and maintained for 48 hours. The supernatant of viral medium was collected.\nThe above obtained supernatant was analyzed by an antigen-capture enzyme-linked immunosorbent assay (ELASA) to quantitate the DEN2 NSI protein level in the viral medium. First, a NS1 antibody was added into each well of a 96-well micro-reaction plate (200 μl/well) and the reaction was maintained at 4° C. overnight. Each well was washed with PBST 3 times (200 μl/time). A 1% BSA-containing blocking buffer (300 μl) was added into each well. […] The reading value of DEN NS1 protein amount in each supernatant was determined by examining the absorbances at a wavelength of 450 nm to evaluate DEN2 replication."}},
  "data": [
    {"smiles": "CCOC(=O)C1=C(Nc2cc(C)cc(C)c2)OCC1=O", "note": "[Compound 1, ethyl 2-(3′,5′-dimethylanilino)-4-oxo-4,5-dihydrofuran-3-carboxylate]", "values": [
      {"measurement": "ratio of BHK-21 cells getting into late apoptosis", "setting": "JEV T1P1", "value": "reduced by compound 1 in a concentration dependent manner"},
      {"measurement": "DEN2-induced cytopathic effect", "setting": "DEN2 [1]", "value": "effectively inhibited"},
      {"measurement": "level of DEN2 NS1 protein", "setting": "DEN2 [2]", "value": "reduced"}
    ]}
  ]
}
